Earlier results on two compounds are cited in US20220354785A1, “ORAL LOZENGE PRODUCTS” (NICOVENTURES TRADING LIMITED, priority 2021, published 2022).

The conditions of series [1]: aqueous environment (e.g., saliva) / water.
The conditions of series [2]: isomerizes to trans-bixin.

For the compound `COC(=O)/C=C/C(C)=C\C=C\C(C)=C\C=C\C=C(C)\C=C\C=C(C)\C=C\C(=O)O` [bixin], the solubility in water entry in series [1] was “insoluble in water”. For the same compound, the “chemical stability when isolated” value in series [2] was “chemically unstable when isolated”.

For the compound `C=C(C)[C@@H]1CCC(C)=C[C@H]1c1c(O)cc(CCCCC)cc1O` [CBD, cannabidiol], the logP value result is reported as “about 6.5”.
